This test deals with DGKα (Homo sapiens (Human), UniProt P23743). Put plainly: Human DGKα kinase activity inhibition assay (ADP-Glo). In kind it is biochemical. To be noted: recombinant full-length human DGKα, 55 μM ATP, 7 μM 1,2-dioleoyl-sn-glycerol, read-out: IC50 values of examples in in vitro human DGKa kinase activity inhibition assays. The method, boiled down: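 Recombinant full-length human DGKα (C-terminal FLAG, from insect cells) phosphorylated 1,2-dioleoyl-sn-glycerol presented in octyl-glucopyranoside micelles. ADP formed was quantified by ADP-Glo luminescence. Compounds were added from 100-fold DMSO stocks.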
Chain of DGKα (P23743 other isoform, or with tags, fused parts or gaps): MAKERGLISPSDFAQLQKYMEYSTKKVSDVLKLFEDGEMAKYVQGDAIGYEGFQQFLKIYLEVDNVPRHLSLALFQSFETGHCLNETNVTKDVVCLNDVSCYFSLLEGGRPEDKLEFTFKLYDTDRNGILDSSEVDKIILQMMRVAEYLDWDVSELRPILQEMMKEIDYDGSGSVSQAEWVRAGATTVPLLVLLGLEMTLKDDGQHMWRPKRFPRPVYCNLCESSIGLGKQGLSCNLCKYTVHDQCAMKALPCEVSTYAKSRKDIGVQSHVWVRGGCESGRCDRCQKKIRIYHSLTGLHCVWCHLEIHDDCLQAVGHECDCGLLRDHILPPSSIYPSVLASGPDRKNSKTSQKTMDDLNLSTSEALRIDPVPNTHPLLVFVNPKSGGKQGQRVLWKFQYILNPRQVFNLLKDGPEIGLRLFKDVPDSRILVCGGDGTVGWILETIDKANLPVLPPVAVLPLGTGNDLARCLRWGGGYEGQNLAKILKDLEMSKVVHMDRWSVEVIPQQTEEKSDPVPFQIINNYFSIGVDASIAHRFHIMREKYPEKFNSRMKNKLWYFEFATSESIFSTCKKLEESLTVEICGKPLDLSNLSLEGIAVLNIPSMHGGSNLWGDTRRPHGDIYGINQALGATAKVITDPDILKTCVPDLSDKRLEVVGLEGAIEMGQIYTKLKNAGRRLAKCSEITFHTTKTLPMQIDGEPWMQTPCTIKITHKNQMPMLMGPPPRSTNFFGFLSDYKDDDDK
What is called IC50 is the concentration needed to halve the response being measured. On to `Cn1ccc2c(F)cc(C3CCN(c4c(C(N)=O)c(=O)n(C)c5ccccc45)CC3)cc21` [Example 471, 4-[4-(4-fluoro-1-methyl-1H-indol-6-yl)piperidin-1-yl]-1-methyl-2-oxo-1,2-dihydroquinoline-3-carboxamide], for which the IC50 came out at 3.9 nM.

In the case of `Cc1ccc2oc(C3CCN(c4c(C(N)=O)c(=O)n(C)c5cc(OCC(N)=O)ccc45)CC3)nc2c1` [Example 508, 7-(2-amino-2-oxoethoxy)-1-methyl-4-[4-(5-methyl-1,3-benzoxazol-2-yl)piperidin-1-yl]-2-oxo-1,2-dihydroquinoline-3-carboxamide], the IC50 turned out to be 1.4 nM.

`COCCNc1cc2c(cc1C)c(N1CCC(c3nc4cc(C)ccc4o3)CC1)c(C(N)=O)c(=O)n2C` [Example 552, 7-[(2-methoxyethyl)amino]-1,6-dimethyl-4-[4-(5-methyl-1,3-benzoxazol-2-yl)piperidin-1-yl]-2-oxo-1,2-dihydroquinoline-3-carboxamide]: the IC50 was 1.6 nM.

As to `Cc1ccc2oc(C3CCN(c4c(C#N)c(=O)n(C)c5cc(N(C)CC#N)ccc45)CC3)nc2c1` [Example 401, 7-[(cyanomethyl)(methyl)amino]-1-methyl-4-[4-(5-methyl-1,3-benzoxazol-2-yl)piperidin-1-yl]-2-oxo-1,2-dihydroquinoline-3-carbonitrile], the 50% inhibitory concentration (IC50) was determined as 0.8 nM.

Regarding `Cn1c(=O)c(C(N)=O)c(N2CCC(c3ccc4c(c3)C3(CCC3)C(=O)N4)CC2)c2ccccc21` [Example 469, 1-methyl-2-oxo-4-[4-(2′-oxo-1′,2′-dihydrospiro[cyclobutane-1,3′-indol]-5′-yl)piperidin-1-yl]-1,2-dihydroquinoline-3-carboxamide], the 50% inhibitory concentration (IC50) stood at 33 nM.

As for `COCc1ccc2nc(C3(C)CCN(c4c(C#N)c(=O)n(C)c5ccccc45)CC3)oc2c1` [Example 392, 4-{4-[6-(methoxymethyl)-1,3-benzoxazol-2-yl]-4-methylpiperidin-1-yl}-1-methyl-2-oxo-1,2-dihydroquinoline-3-carbonitrile], the IC50 was 6.7 nM.

In the case of `Cn1c(=O)c(C(N)=O)c(N2CCC(c3nc4ccccc4s3)CC2)c2ccc(N3CCCC3=O)cc21` [Example 116, 4-[4-(1,3-benzothiazol-2-yl)piperidin-1-yl]-1-methyl-2-oxo-7-(2-oxopyrrolidin-1-yl)-1,2-dihydroquinoline-3-carboxamide], the concentration for half-maximal inhibition (IC50) came out at 36 nM.

For the molecule `COc1ccc2c(N3CCC(c4nc5ccc(Cl)cc5o4)CC3)c(C#N)c(=O)n(C)c2c1` [Example 258, 4-[4-(6-chloro-1,3-benzoxazol-2-yl)piperidin-1-yl]-7-methoxy-1-methyl-2-oxo-1,2-dihydroquinoline-3-carbonitrile], the half-maximal inhibitory concentration (IC50) was 29 nM.

As for `CNC(=O)c1c(N2CCC(c3nc4cc(C)ccc4o3)CC2)c2ccccc2n(C)c1=O` [Example 448, N,1-dimethyl-4-[4-(5-methyl-1,3-benzoxazol-2-yl)piperidin-1-yl]-2-oxo-1,2-dihydroquinoline-3-carboxamide], the half-inhibitory concentration (IC50) is 27 nM.

Turning to `Cc1ccc2oc(C3(C)CCN(c4c(C(N)=O)c(=O)n(C)c5ccc(C#N)cc45)CC3)nc2c1` [Example 208, 6-cyano-1-methyl-4-[4-methyl-4-(5-methyl-1,3-benzoxazol-2-yl)piperidin-1-yl]-2-oxo-1,2-dihydroquinoline-3-carboxamide], the IC50 came to 3.4 nM.

Regarding `Cc1ccc2oc(C3CCN(c4c(C#N)c(=O)n(C)c5ccccc45)CC3)nc2c1` [Example 5, 1-methyl-4-[4-(5-methyl-1,3-benzoxazol-2-yl)piperidin-1-yl]-2-oxo-1,2-dihydroquinoline-3-carbonitrile], the IC50 stood at 1.6 nM.

On to `Cc1ccc2oc(C3CCN(c4c(C(N)=O)c(=O)n(C)c5cc([N+](=O)[O-])c(C)cc45)CC3)nc2c1` [Example 510, 1,6-dimethyl-4-[4-(5-methyl-1,3-benzoxazol-2-yl)piperidin-1-yl]-7-nitro-2-oxo-1,2-dihydroquinoline-3-carboxamide], for which the IC50 came out at 70 nM.

Regarding `Cn1c(=O)c(C#N)c(N2CCC(c3cccc(F)c3)CC2)c2ccccc21` [Example 62, 4-[4-(3-fluorophenyl)piperidin-1-yl]-1-methyl-2-oxo-1,2-dihydroquinoline-3-carbonitrile], the IC50 came out at 38 nM.

With `Cn1c(=O)c(C(N)=O)c(N2CCC(C)(c3nc4ccccc4o3)CC2)c2cccc(Cl)c21` [Example 310, 4-[4-(1,3-benzoxazol-2-yl)-4-methylpiperidin-1-yl]-8-chloro-1-methyl-2-oxo-1,2-dihydroquinoline-3-carboxamide], the half-inhibitory concentration (IC50) came out at 34 nM.

Regarding `COc1ccc2cc(C3CCN(c4c(C#N)c(=O)n(C)c5ccccc45)CC3)ccc2c1` [Example 343, 4-[4-(6-methoxynaphthalen-2-yl)piperidin-1-yl]-1-methyl-2-oxo-1,2-dihydroquinoline-3-carbonitrile], the half-maximal inhibitory concentration (IC50) worked out at 16 nM.

As for `Cn1c(=O)c(C(N)=O)c(N2CCC(c3nc4ccccc4o3)CC2)c2ccc(N3CCCC3=O)cc21` [Example 318, 4-[4-(1,3-benzoxazol-2-yl)piperidin-1-yl]-1-methyl-2-oxo-7-(2-oxopyrrolidin-1-yl)-1,2-dihydroquinoline-3-carboxamide], the 50% inhibitory concentration (IC50) turned out to be 48 nM.

For the molecule `Cn1c(=O)c(C#N)c(N2CCC(c3ccn(-c4ccc(Cl)cc4)n3)CC2)c2ccccc21` [Example 369, 4-{4-[1-(4-chlorophenyl)-1H-pyrazol-3-yl]piperidin-1-yl}-1-methyl-2-oxo-1,2-dihydroquinoline-3-carbonitrile], the 50% inhibitory concentration (IC50) was 14 nM.

Turning to `Cc1ccc2oc(C3(C)CCN(c4c(C#N)c(=O)n(C)c5cc(C#N)ccc45)CC3)nc2c1` [Example 249, 1-methyl-4-[4-methyl-4-(5-methyl-1,3-benzoxazol-2-yl)piperidin-1-yl]-2-oxo-1,2-dihydroquinoline-3,7-dicarbonitrile], the concentration for half-maximal inhibition (IC50) came to 7.2 nM.

Consider `Cc1cccc(-n2ccc(C3CCN(c4c(C(N)=O)c(=O)n(C)c5ccccc45)CC3)n2)c1` [Example 472, 1-methyl-4-{4-[1-(3-methylphenyl)-1H-pyrazol-3-yl]piperidin-1-yl}-2-oxo-1,2-dihydroquinoline-3-carboxamide], for which the 50% inhibitory concentration (IC50) came out at 6.7 nM.

For the molecule `COc1ccc2c(c1)c(N1CCC(C)(c3nc4cc(C)ccc4o3)CC1)c(C#N)c(=O)n2C` [Example 246, 6-methoxy-1-methyl-4-[4-methyl-4-(5-methyl-1,3-benzoxazol-2-yl)piperidin-1-yl]-2-oxo-1,2-dihydroquinoline-3-carbonitrile], the IC50 stood at 6.5 nM.

`Cc1ccccc1-c1noc(C2CCN(c3c(C#N)c(=O)n(C)c4ccccc34)CC2)n1` [Example 348, 1-methyl-4-{4-[3-(2-methylphenyl)-1,2,4-oxadiazol-5-yl]piperidin-1-yl}-2-oxo-1,2-dihydroquinoline-3-carbonitrile]: the IC50 is 7.9 nM.

Regarding `COc1ccc(C2CCN(c3c(C#N)c(=O)n(C)c4cc(C#N)ccc34)CC2)cc1` [Example 93, 4-[4-(4-methoxyphenyl)piperidin-1-yl]-1-methyl-2-oxo-1,2-dihydroquinoline-3,7-dicarbonitrile], the IC50 stood at 11 nM.

For `COc1ccc(C2CCN(c3c(C#N)c(=O)n(C)c4ccc(Br)cc34)CC2)cc1` [Example 167, 6-bromo-4-[4-(4-methoxyphenyl)piperidin-1-yl]-1-methyl-2-oxo-1,2-dihydroquinoline-3-carbonitrile], the IC50 worked out at 3.2 nM.

The record behind these values is patent US11998539B2, “Substituted aminoquinolones as DGKalpha inhibitors for immune activation” (Bayer Aktiengesellschaft, priority 2019, dated 2024).
